Measured values published in patent publication US12594349B2, “Compositions and methods for the targeting of PCSK9” (Scribe Therapeutics Inc., priority 2022, dated 2026).

Legend:
[1] = system: Huh7 cells; experiment: RNA-seq, differentially regulated off-target genes in transfected Huh7 cells; type: cell-based, human; settings: Huh7, 6 and 26 days post-transfection, |log2FC|>2 and adjusted p-value<0.001
Text: (§1) Seeded Huh7 cells were transfected with mRNA encoding a catalytically-active CasX 676, dXR1, or LTRP5-ADD-ZIM3 and a gRNA with scaffold 316 and a spacer targeting the PCSK9 locus. Cells were harvested at 6 and 26 days post-transfection and subsequently lysed and stored in DNA/RNA Shield (Zymo Research). As an additional control, untreated, naïve cells were also harvested. The collected samples were subjected to gDNA/RNA extraction using the Quick-DNA/RNA Miniprep Plus kit (Zymo Research). RNA samples were used for total RNA sequencing (RNA-seq), which was performed by a third-party. Raw FASTQ files were received and processed with FASTQC, and adapters were trimmed using Trim Galore. Transcript expression was then quantified against the hg38 genome using Salmon to generate normalized counts for each gene (transcripts per million, or TPM). Differential expression analysis was performed using DESeq2. Genes with fewer than 10 counts in all samples were omitted from analysis, and all pairwise comparisons (e.g., differential gene expression analyses between untreated and treated conditions at the two individual timepoints) were done with significance thresholds of |log 2FC|>2 and adjusted p-value<0.001.

[2] = system: PCSK9 locus; experiment: RNA-seq, normalized PCSK9 read counts in transfected Huh7 cells; type: cell-based, human; settings: Huh7, mRNA + gRNA scaffold 316 v1, 6 and 26 days post-transfection
Text: as §1

[3] = system: human PCSK9 locus; experiment: Secreted PCSK9 by ELISA in Huh7 cells transfected with mRNA and gRNA; type: cell-based; settings: Huh7 cells; for Secreted PCSK9: 6 days post-transfection, normalized to total cell count; for Percent reduction in PCSK9 secretion / Average percent reduction in PCSK9 secretion: LTRP5-ADD-ZIM3 mRNA; for Percent reduction in PCSK9 secretion: day 6, relative to non-targeting gRNA control; for Average percent reduction in PCSK9 secretion: day 6, averaged from the two doses
Summary of the method: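 Huh7 (also HepG2, Hep3B) cells were transfected with mRNA for CasX 676, dXR1 or LTRP5-ADD-ZIM3 plus scaffold 316 gRNA targeting PCSK9 or B2M; one screen used 50:25 or 25:12.5 ng mRNA:gRNA. Supernatant PCSK9 was measured by ELISA at 4–87 days post-transfection and normalized to cell count.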

[4] = system: mouse PCSK9 locus; experiment: Intracellular PCSK9 staining by flow cytometry in Hepa1-6 cells lipofected with mRNA and gRNA; type: cell-based; settings: Hepa1-6, dXR1 mRNA, day 6
Description: Seeded Hepa1-6 cells treated with the NATE™ inhibitor were lipofected with 300 ng of mRNA encoding dXR1 or LTRP1-ZIM3 (Table 12) and 150 ng of a PCSK9-targeting gRNA (Table 14). Seven different gRNAs spanning the promoter region of the mouse PCSK9 locus were tested, in addition to a non-targeting sequence complementary to the human PCSK9 gene (Table 14). Cells were harvested at 6, 13, and 25 days after transfection to measure intracellular levels of the PCSK9 protein using an intracellular flow cytometry staining protocol. […]
Seeded Hepa1-6 cells treated with the NATE™ inhibitor were lipofected with 300 ng of mRNA encoding LTRP1-ZIM3, LTRP5-ZIM3, catalytically-active CasX 491, or dCas9-ZNF10-DNMT3A/3L, and 150 ng of PCSK9-targeting gRNA (Table 14). Intracellular levels of PCSK9 protein were measured at 7, 14, 21, 36, and 71 days post-transfection using an intracellular staining protocol as described earlier for experiment #1.
Transfection of mRNA and gRNA into Hepa1-6 cells and intracellular PCSK9 staining were performed as described in Example 2. […] Intracellular levels of PCSK9 protein were measured at various timepoints, up to day 53 post-transfection using an intracellular staining protocol as described earlier in Example 2. […]

[5] = LTRP5-ADD-ZIM3 mRNA + gRNA scaffold 316, 25 ng mRNA:12.5 ng gRNA
[6] = LTRP5-ADD-ZIM3 mRNA + gRNA scaffold 316, 50 ng mRNA:25 ng gRNA

Molecule	differentially regulated off-target genes [1]	PCSK9 expression by RNA-seq [2]	Secreted PCSK9 [3, 5] [ng/mL]	Secreted PCSK9 [3, 6] [ng/mL]	Percent reduction in PCSK9 secretion ([3]; 25 ng mRNA:12.5 ng gRNA) [%]	Percent reduction in PCSK9 secretion ([3]; 50 ng mRNA:25 ng gRNA) [%]	Average percent reduction in PCSK9 secretion [3] [%]	degree of repression with dXR1 mRNA compared with LTRP1-ZIM3 mRNA [4]
TG-06-133 (guide AUGGUAGGCACAAGCUCAGC; listed as RNA, chemistry not given here)	lowest number of differentially regulated off-target genes	durably repress PCSK9 expression	42.13	29.45	40.86	64.21	52.53	–
TG-06-154 (guide AGGGUGUGGGUGCUUGACGC; listed as RNA, chemistry not given here)	higher number of differentially regulated off-target genes	durably repress PCSK9 expression	24.48	6.87	65.64	91.65	78.64	–
TG-06-167 (guide CACUGAAUAGCGCAGCCGCA; listed as RNA, chemistry not given here)	higher number of differentially regulated off-target genes	durably repress PCSK9 expression	66.61	39.55	6.51	51.93	29.22	–
27.100 (nucleic acid, as printed in the source, key not given here) guide: ACUUUGAGAGCCAUCACCAGCGACUAUGUCGUAGUGGGUAAAGCUCCCUCUUCGGAGGGAGCAUCAAAGCUCUCUCUUUCUGAGGCmU*mA*mG	–	–	–	–	–	–	–	less substantial
